Results published in US20260085073A1, “PYRAZOLYLCARBOXAMIDE COMPOUNDS AND THEIR USE IN THERAPY” (Hotspot Therapeutics, Inc., priority 2022, published 2026).

Target: T1, MALT1 (Homo sapiens, UniProt Q9UDY8)
T1 construct: Avi-tagged FL MALT-1 (Pharmaron, stored at −70° C.); Avi-tag
T1 sequence (Q9UDY8 1-824): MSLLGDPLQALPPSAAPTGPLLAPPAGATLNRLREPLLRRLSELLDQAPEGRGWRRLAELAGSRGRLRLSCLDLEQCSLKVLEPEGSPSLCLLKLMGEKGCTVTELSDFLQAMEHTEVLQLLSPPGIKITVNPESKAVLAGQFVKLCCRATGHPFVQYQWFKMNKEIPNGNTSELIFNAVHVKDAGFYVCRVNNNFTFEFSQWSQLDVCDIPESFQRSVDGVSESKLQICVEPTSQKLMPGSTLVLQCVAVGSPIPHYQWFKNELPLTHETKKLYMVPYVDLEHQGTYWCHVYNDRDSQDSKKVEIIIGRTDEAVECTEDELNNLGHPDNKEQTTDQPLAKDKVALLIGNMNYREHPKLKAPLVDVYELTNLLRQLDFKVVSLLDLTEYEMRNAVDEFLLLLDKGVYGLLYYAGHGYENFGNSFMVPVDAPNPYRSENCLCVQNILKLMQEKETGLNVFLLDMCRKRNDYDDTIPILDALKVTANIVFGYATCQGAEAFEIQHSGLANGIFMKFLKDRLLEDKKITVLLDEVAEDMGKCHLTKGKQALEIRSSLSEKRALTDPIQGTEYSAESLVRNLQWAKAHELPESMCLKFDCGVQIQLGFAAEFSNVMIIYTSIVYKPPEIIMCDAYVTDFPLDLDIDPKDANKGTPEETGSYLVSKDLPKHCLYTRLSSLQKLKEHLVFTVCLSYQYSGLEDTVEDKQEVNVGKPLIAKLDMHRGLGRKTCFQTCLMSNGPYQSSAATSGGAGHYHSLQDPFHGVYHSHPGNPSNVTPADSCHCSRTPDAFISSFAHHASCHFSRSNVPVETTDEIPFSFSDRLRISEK
Experiment: MALT1 inhibition assay (MALT-1 Fluorogenic Peptide Cleavage Assay, Ac-LRSR-AMC substrate)
Type: biochemical
Conditions: Avi-tagged FL MALT-1, 30 min pre-incubation, 90 min reaction at room temperature, fluorescence intensity
Experimental: Example 71—MALT1 Inhibition Assay
Compounds were tested for ability to bind to MALT1.
Inhibition of MALT1 activity by the presence of small molecules was evaluated using MALT-1 Fluorogenic Peptide Cleavage Assay. The assay utilizes a quenched AMC-labelled peptide that contains the MALT-1 recognition sequence and cleavage site (LRSR). MALT-1 mediated cleavage of the peptide relieves the quenching and leads to an increase in fluorescence at excitation (342 nm) and emission (441 nm).
The following reagents were obtained commercially and used to prepare standard reagent formulations as further described below: N-2-hydroxyethylpiperazine-N-2-ethane sulfonic acid (HEPES) (1 M, pH 7.5, stored at 4° C.), sodium citrate (stored at RT), tris(2-carboxyethyl) phosphine hydrochloride (T-CEP) (500 mM, stored at −20° C.), ethylenediaminetetraacetic acid (EDTA) (500 mM, stored at RT), dimethylsulfoxide (DMSO, stored at RT), 3-[(3-cholamidopropyl)dimethylammonio]-1-propane sulphate (CHAPS) (stored at RT), dimethylsulfoxide (DMSO), DMSO (Fisher Scientific, stored at RT), Avi-tagged FL MALT-1 (Pharmaron, stored at −70° C.), Ac-LRSR-AMC Peptide (SM Biochemicals, stored at −20° C.), and ultrapure water (MILLI-QR).
The standard reagent formulations used in this assay were prepared and stored as follows. A 1.1 M solution of sodium citrate (161.3 g, 500 mL) was prepared and stored at room temperature. A 10% (w/v) CHAPS solution (2.0 g, 20 mL) was prepared and stored at 4° C. A 500 mM HEPES solution having pH of 6.89 was prepared from 200 mL of a 1 M HEPES solution having a pH of 7.5 using concentrated hydrochloric acid and brought to a final volume of 400 mL with MILLI-QR H2O. The substrate, 10 mM Ac-LRSR-AMC Peptide, was prepared (10 mg, 1.370 mL DMSO) and stored at −20° C.
Compounds were plated to provide a 2% DMSO final concentration using a ProxiPlate-384 Plus F Black 384-shallow well microplate. The assay-ready plates were equilibrated to room temperature. A reaction buffer (30 mL total volume) was prepared by combining HEPES (pH 6.89, 25 mM, 1.5 mL), sodium citrate (660 mM, 18.0 mL), T-CEP (1 mM, 0.06 mL), EDTA ([…], 0.06 mL), CHAPS (0.05%, 0.15 mL), DMSO (2%, 0.6 mL), and MILLI-QR H2O (10.23 mL; 9.63 mL when backfilled to 2% DMSO) followed by thorough mixing. DMSO was added only when compound plates had not been DMSO-backfilled to 2%.
MALT-1 was thawed and kept on ice. Peptide substrate was thawed on the bench under ambient conditions. A MALT-1 enzyme working stock was prepared from Avi-tagged FL MALT-1 (40 nM in a prepared reagent volume of 16.5 μL) and the reaction buffer (13.0 mL). MALT1 working stock (5 μL) was added to each well of the microplate. MALT-1 was pre-incubated with compounds for 30 minutes at room temperature.
Two substrate working stocks (Km and 10×Km) were prepared. The 1×Km substrate was prepared from Ac-LRSR-AMC Peptide (50 μM in a prepared reagent volume of 35.0 μL) and the reaction buffer (6.965 mL). The 10×Km substrate was prepared from Ac-LRSR-AMC Peptide (280 μM in a prepared reagent volume of 196.0 μL) and the reaction buffer (6.804 mL). The reaction was initiated by the addition of substrate working stock (5 μL, 50 μM) to Km plates and the addition of substrate working stock (5 μL 280 μM) to 10×Km plates. The plates were covered and incubated on the bench at room temperature for 90 minutes.
Fluorescence intensity was determined using a CLARIOstar microplate reader (BMG LABTECH) using the optimised AMC mode. Before taking readings, a 70% gain was applied on the neutral control well. Compound data were normalised to % Inhibition and used to plot sigmoidal concentration response curves to yield various parameters including IC50.

Structure (SMILES)	IC50 [nM]
Cn1nc(-c2cccn3nccc23)c(C(F)(F)F)c1C(=O)Nc1ccnc(C(F)(F)F)c1 [Compound I-87]	< 500
COc1ccccc1-c1nn(C)c(C(=O)Nc2ccnc(C(F)(F)F)c2)c1C(F)(F)F [Compound I-88]	< 500
Cn1nc(-c2cccc(Cl)c2Cl)c(C(F)(F)F)c1C(=O)Nc1ccnc(C(F)(F)F)c1 [Compound I-89]	500 to 2500
Cn1nc(-c2csc3ncccc23)c(C(F)(F)F)c1C(=O)Nc1ccnc(C(F)(F)F)c1 [Compound I-90]	500 to 2500
Cn1nc(-c2cccc3c2CCO3)c(C(F)(F)F)c1C(=O)Nc1ccnc(C(F)(F)F)c1 [Compound I-91]	500 to 2500
Cn1nc(-c2csc3ccccc23)c(C(F)(F)F)c1C(=O)Nc1ccnc(C(F)(F)F)c1 [Compound I-92]	< 500
Cn1nc(-c2cc(OC3COC3)ccc2Cl)c(C(F)(F)F)c1C(=O)Nc1ccnc(C(F)(F)F)c1 [Compound I-93]	500 to 2500
Cn1nc(-c2cccc3c2COC3)c(C(F)(F)F)c1C(=O)Nc1ccnc(C(F)(F)F)c1 [Compound I-95]	500 to 2500
Cn1nc(-c2cccc3scnc23)c(C(F)(F)F)c1C(=O)Nc1ccnc(C(F)(F)F)c1 [Compound I-96]	< 500
Cn1nc(-c2cccc3[nH]ccc23)c(C(F)(F)F)c1C(=O)Nc1ccnc(C(F)(F)F)c1 [Compound I-97]	500 to 2500
CN1Cc2c(cccc2-c2nn(C)c(C(=O)Nc3ccnc(C(F)(F)F)c3)c2C(F)(F)F)C1=O [Compound I-98]	> 10000
Cn1nc(-c2cccc3ccsc23)c(C(F)(F)F)c1C(=O)Nc1ccnc(C(F)(F)F)c1 [Compound I-99]	< 500
CC(=O)Nc1cc(-c2nn(C)c(C(=O)Nc3ccnc(C(F)(F)F)c3)c2C(F)(F)F)ccn1 [Compound I-100]	> 10000
Cc1csc2c(-c3nn(C)c(C(=O)Nc4ccnc(C(F)(F)F)c4)c3C(F)(F)F)cccc12 [Compound I-101]	500 to 2500
Cn1nc(-c2cccn3nnnc23)c(C(F)(F)F)c1C(=O)Nc1ccnc(C(F)(F)F)c1 [Compound I-102]	2500 to 10000
Cn1cc(-c2nn(C)c(C(=O)Nc3ccnc(C(F)(F)F)c3)c2C(F)(F)F)c(C2CC2)n1 [Compound I-103]	2500 to 10000
COc1cc(-c2nn(C)c(C(=O)Nc3ccnc(C(F)(F)F)c3)c2C(F)(F)F)c2scnc2c1 [Compound I-104]	> 10000
Cn1nc(-c2nccc3ccccc23)c(C(F)(F)F)c1C(=O)Nc1ccnc(C(F)(F)F)c1 [Compound I-105, 3-(isoquinolin-1-yl)-1-methyl-4-(trifluoromethyl)-N-(2-(trifluoromethyl)pyridin-4-yl)-1H-pyrazole-5-carboxamide]	500 to 2500
Cn1nc(-c2nccc3ccoc23)c(C(F)(F)F)c1C(=O)Nc1ccnc(C(F)(F)F)c1 [Compound I-106]	< 500
Cn1nc(-c2nccc3ncsc23)c(C(F)(F)F)c1C(=O)Nc1ccnc(C(F)(F)F)c1 [Compound I-107]	> 10000

Structure (SMILES)	IC50 [nM]
COCCn1cc(-c2nn(C)c(C(=O)Nc3ccnc(C(F)(F)F)c3)c2C(F)(F)F)c2ccncc21 [Compound I-108]	> 10000
Cn1nc(-c2cccc3nnsc23)c(C(F)(F)F)c1C(=O)Nc1ccnc(C(F)(F)F)c1 [Compound I-109]	> 10000
Cn1nc(-c2ccnc3c(F)cccc23)c(C(F)(F)F)c1C(=O)Nc1ccnc(C(F)(F)F)c1 [Compound I-110]	500 to 2500
Cn1nc(-c2nccn3ccnc23)c(C(F)(F)F)c1C(=O)Nc1ccnc(C(F)(F)F)c1 [Compound I-111]	500 to 2500
Cn1nc(-c2cn(C)c3c(=O)[nH]ccc23)c(C(F)(F)F)c1C(=O)Nc1ccnc(C(F)(F)F)c1 [Compound I-112]	2500 to 10000
Cn1nc(-c2csc3c(=O)[nH]ccc23)c(C(F)(F)F)c1C(=O)Nc1ccnc(C(F)(F)F)c1 [Compound I-113]	500 to 2500
Cn1nc(-c2cncc3ccn(C)c23)c(C(F)(F)F)c1C(=O)Nc1ccnc(C(F)(F)F)c1 [Compound I-114]	500 to 2500
Cn1nc(-c2cncc3cc[nH]c23)c(C(F)(F)F)c1C(=O)Nc1ccnc(C(F)(F)F)c1 [Compound I-115]	2500 to 10000
Cn1nc(-c2cccc3c(=O)[nH]ncc23)c(C(F)(F)F)c1C(=O)Nc1ccnc(C(F)(F)F)c1 [Compound I-116]	500 to 2500
Cn1nc(-c2cccc3nc(N)sc23)c(C(F)(F)F)c1C(=O)Nc1ccnc(C(F)(F)F)c1 [Compound I-117]	500 to 2500
Cn1nc(-c2cccc3nncn23)c(C(F)(F)F)c1C(=O)Nc1ccnc(C(F)(F)F)c1 [Compound I-118]	2500 to 10000
Cn1nc(-c2cncc3nccn23)c(C(F)(F)F)c1C(=O)Nc1ccnc(C(F)(F)F)c1 [Compound I-119]	2500 to 10000
Cn1nc(-c2csc3cnccc23)c(C(F)(F)F)c1C(=O)Nc1cnc(-n2nccn2)c(C(F)(F)F)c1 [Compound I-120, N-(6-(2H-1,2,3-triazol-2-yl)-5-(trifluoromethyl)pyridin-3-yl)-1-methyl-3-(thieno[2,3-c]pyridin-3-yl)-4-(trifluoromethyl)-1H-pyrazole-5-carboxamide]	< 500
Cn1nc(-c2cccc3ncccc23)c(C(F)(F)F)c1C(=O)Nc1cnc(-n2nccn2)c(C(F)F)c1 [Compound I-121]	< 500
Cn1nc(-c2cccc3ncccc23)c(C(F)(F)F)c1C(=O)Nc1cnc(-n2nccn2)c(C(F)(F)F)c1 [Compound I-122]	< 500
Cn1nc(-c2cccc3ncn(C4CC4)c23)cc1C(=O)Nc1ccnc(C(F)(F)F)c1 [Compound I-123]	> 10000
Cn1nc(-c2c[nH]c3cnccc23)c(C(F)(F)F)c1C(=O)Nc1ccnc(C(F)(F)F)c1 [Compound I-124]	500 to 2500
Cn1nc(-c2cccc3ncsc23)c(C(F)(F)F)c1C(=O)Nc1cnc(-n2nccn2)c(C(F)(F)F)c1 [Compound I-125]	< 500
Cn1nc(-c2cccc3ncsc23)c(C(F)(F)F)c1C(=O)Nc1cnc(-n2nccn2)c(Cl)c1 [Compound I-126]	< 500
Cn1nc(-c2cccc3ccoc23)c(C(F)(F)F)c1C(=O)Nc1cnc(-n2nccn2)c(C(F)(F)F)c1 [Compound I-127]	< 500
